We go through six compounds from patent publication US9504687B2, “Treating Bax(Δ)2-positive cancer with chemotherapies targeting caspase 8” (Mumetel, LLC, priority 2013, dated 2016).

Entries after “also recorded” stand apart in the source; their conditions may differ. Read-outs that look alike come from different tables or passages of the source. Where a SMILES comes first, the peptide text is derived from it. The star is where a group is joined. Cbz = O=C(OCc1ccccc1)*

The subject of data set [1] is BaxΔ2 protein. The data set is described as follows: Immunoblotting of BaxΔ2 protein after MG-132 treatment, clone #10. The format is cell-based, human. Conditions: clone #10 (HCT116-BP10); MG-132 10 μM for 8 h. Here is the method: (§1) FIG. 7. Generation and characterization of the isogenic subline cells with the different Bax microsatellite status. A, Schematic diagram of generating the HCT116 sublines. Cells were treated with 500 μM Indomethacin for 72 h. A single cell suspension was plated into 96-well plates without Indomethacin. Bax microsatellite statuses (G8/G8, G8/G7, or G7/G7) of each sublines were determined by genomic sequencing as described in the methods. B, RT-PCR analysis of Bax alternative splicing and BaxΔ2 production. The cDNAs were generated from HCT116 clones #10 (G7/G7 genotype) and clone #28 (G8/G7 genotype) with a set of primers that cover Bax exon 1 through exon 6, or primers specific for BaxΔ2 as described in the methods. The PCR products of Baxα and BaxΔ2 plasmid DNA were used as controls. […] Total 1×10^4 cells were seeded onto 24-well plates and the cell numbers were counted every 24 h up to 96 h. […]
(§2) We then determined the expression of endogenous BaxΔ2 proteins in the HCT116 clones #10 and #28 subline cells using a specific anti-BaxΔ2 antibody. […] Of note, both clone #10 and clone #28 had no detectable parental Baxα proteins, as analyzed by immunoblotting using several anti-Baxα antibodies (FIG. 7C and data not shown).
On the technique in general: Immunoblotting shows a protein as a band on a membrane.

Data set [2] relates to BaxΔ2 protein. The data set is described as follows: Immunoblotting of BaxΔ2 protein after MG-132 treatment, clone #28. The format is cell-based, human. Conditions: clone #28 (HCT116-BN28); MG-132 10 μM for 8 h. Here is the method: as §1, §2
Data set [3] relates to HCT116 isogenic subline clone #10 (BaxΔ2-positive). The format is cell-based, human. Conditions: Table 5 screening. Here is the method: Colon cancer cell line HCT116 was obtained from American Type Culture Collection. The cell line was tested and authenticated by Genetica (Cincinnati. Ohio) before the experiments. Both HCT116 and Bax^−/− mouse embryonic fibroblasts (MEFs) cells were cultured in DMEM supplemented with 10% FBS. To isolate single cell population from HCT116 cells, cells were treated with 500 μM Indomethacin for 72 h to enrich Bax G7 population. Single-cell suspension was plated onto 96-well plates without Indomethacin. Single clones were recovered, expanded, and validated by both genomic sequencing and RT-PCR analysis.
However, the heterogeneity of different cell lines often adds complexity to data interpretation. […] For the initial screening, we selected a panel of different classes of commonly used chemotherapeutic drugs.

Data set [4] concerns HCT116-BP10 (BaxΔ2 positive) versus HCT116-BN28 (BaxΔ2 negative) sublines. The data set is described as follows: Cell death assay of HCT116 sublines treated with chemotherapeutic drugs for 36 hours. The format is cell-based, human. Conditions: Adriamycin (40 ug/ml) or 5-FU (500 ug/ml), compared with BaxΔ2 negative subline. Here is the method:
FIG. 8. […] Adr, Adriamycin; Etop, Etoposide; 5-FU, 5-fluorouracil; Contr, control.
BaxΔ2 positive (HCT116-BP10) and negative (HCT116-BN28) sublines were treated with Adriamycin (40 ug/ml) or 5-FU (500 ug/ml) for 36 hours in a regular cell culture medium. […] Both Adriamycin and Etoposide are in the same category as topoisomerase inhibitors; and both 5-FU and Cytoxan are in the same class of alkaloid drugs.

The subject of the next data set is caspase-8. The data set can be described thus: Immunoblotting for cleaved caspase-8 in chemodrug treated clone #10. Type of data set: cell-based, human. Conditions: 5-FU (500 μM) or Adriamycin (4 μg/ml) 24 h. Here is the method:
(§3) FIG. 9. BaxΔ2 promotes apoptosis through activation of caspase-8. A, Cell death assay of HCT116 clone #10 and clone #28 cells treated with or without 5-FU (500 μM) or Adriamycin (Adr, 4 μg/ml) for 24 h in the presence of inhibitors (50 μM each) for caspase-3 (DEVD) SEQ ID NO: 4), caspase-8 (IETD) (SEQ ID NO: 5), caspase-1 (YVAD) (SEQ ID NO: 6), and caspase-9 (LEHD) (SEQ ID NO: 7) as indicated. ** P<0.01. inh., inhibitor. B, Caspase-3 assay of HCT116 clone #10 and #28 cells treated as described in (A). The activity of caspase-3 was measured using fluorogenic caspase-3 substrate DEVD-AFC (SEQ ID NO: 4) (50 μM) with a microplate spectrofluorometer. C, Immunoblotting analysis for the detection of cleaved casapase-8 in the chemodrug treated clone #10 and #28 cells with an anti-cleaved caspase-8 antibody.
(§4) Bax typically targets the mitochondria upon activation and results in the activation of the caspase-9 and caspase-3 cascade for cell death. To determine the underlying mechanism by which BaxΔ2 promoted cell death, HCT116 clones #10 and #28 were treated with Adriamycin or 5-FU in the presence of different caspase inhibitors. […] The caspase-3 activity was confirmed by the caspase-3 fluorometric assay (FIG. 9B). […]

The subject of the next data set is Bid. The data set is described as follows: Immunoblotting analysis of cleaved Bid in clone #10. Type of data set: cell-based, human. Conditions: BaxΔ2-positive clone #10 cells. Here is the method: (§5) FIG. 10. The Bid-dependent mitochondrial death pathway is not essential for the onset of chemodrug-induced apoptosis in BaxΔ2-positive cells. A, Immunoblotting analysis of cleaved Bid in HCT116 clone #10 and #28 cells treated with or without 5-FU (500 μM) or Adriamycin ([…]) as indicated. The intensities of truncated Bid bands were quantitated relevant to the actin control and are presented as arbitrary numbers. B, Cell death assay of HCT116 clone #10 cells treated with 5-FU (500 μM) in the presence of a Bid specific inhibitor (BI-6C9; 10 μM) or Bid siRNA. C, Cell death assay of clone #10 cells treated with 5-FU (500 μM) in the presence of a caspase-9 inhibitor (LEHD (SEQ ID NO: 7); 50 μM) or transfected with a caspase-9 dominant negative (D/N) mutant construct. D, Representative images of JC-1 staining. Carbonyl cyanide 4-(trifluoromethoxy) phenylhydrazone (FCCP; 100 μM) was used as a positive control. JC-1 monomer green fluorescence as observed by excitation with 488 nm and emission with 529 nm (top panel). JC-1 aggregate red fluorescence as observed by excitation at 546 nm and emission at 590 nm (bottom panel).
(§6) Caspase-8 is one of the initiator caspases in the extrinsic death receptor pathway. […] We next determined if the Bid-dependent mitochondrial death pathway was required for BaxΔ2 to promote apoptosis. […]

Data set [5] has as its system HCT116 clone #10. The data set can be described thus: Cell death assay of clone #10 treated with 5-FU with Bid or caspase-9 inhibition. Type of data set: cell-based, human. Conditions: clone #10 treated with 5-FU (500 μM); BI-6C9 10 μM; LEHD 50 μM. Here is the method: as §5, with “(bottom panel). […]” for “(bottom panel).”
as §6

The subject of data set [6] is HCT116 clone #10. The data set can be described thus: Cell death assay with chemodrug in the presence of caspase inhibitors. The format is cell-based, human. Conditions: clone #10 treated with 5-FU (500 μM) or Adriamycin (4 μg/ml) 24 h; inhibitors 50 μM each. Here is the method:
as §3, §4

Data set [7] relates to prostate cancer 104-R cells (G7/G7). Conditions: previously shown; cited from earlier work.
Data set [8] concerns colon cancer LoVo cells (G7/G9). Conditions: previously shown; cited from earlier work.

For the compound `CC(C)C[C@@H](C=O)NC(=O)[C@H](CC(C)C)NC(=O)[C@H](CC(C)C)NC(=O)OCc1ccccc1` [MG-132] (Cbz-Leu-Leu-Leu-aldehyde), the figures for the “Detection of BaxΔ2 proteins after treatment” value in the data set with BaxΔ2 protein [1] and with BaxΔ2 protein [2] were “easily detected” and “no detectable BaxΔ2 proteins”, respectively.
Turning to `O=c1[nH]cc(F)c(=O)[nH]1` [5-FU, 5-Fluorouracil], in data set [3], the “Sensitivity of BaxΔ2-positive clone #10 compared with BaxΔ2-negative clone #28” value is “highly sensitive; also recorded: selectively sensitive”. For the same compound, the “Sensitivity of BaxΔ2 positive clone #10 cells to treatment (cell death assay)” value in data set [4] is listed as “more sensitive”. Further, the “Caspase-8 activation (cleaved caspase-8 fragments 43 kDa and 18 kDa)” value with caspase-8 is listed as “activated”. Further, in the data set on Bid, the “Bid degradation (cleaved Bid)” value is given as “partially degraded”.
Turning to “Bid siRNA: Bid siRNA (5′GGGCAAAAGC UUACAAAUAUU3′) (SEQ ID NO: 47) (GGGCAAAAGCUUACAAAUAUU; listed as RNA, chemistry not given here)”, the “Effect on chemodrug-induced apoptosis” value in the data set with HCT116 clone #10 [5] is “did not significantly affect”.
As to “Z-IETD-FMK (N-Z, C-terminal fluoromethylketone) [caspase-8 inhibitor]”, the “Inhibition of chemodrug-induced apoptosis” value in the data set with HCT116 clone #10 [6] is recorded as “effectively inhibited”.
`COc1cccc2c1C(=O)c1c(O)c3c(c(O)c1C2=O)C[C@@](O)(C(=O)CO)C[C@@H]3O[C@H]1C[C@H](N)[C@H](O)[C@H](C)O1` [Doxorubicin, doxorubicin]: in data set [3] (listed as Adriamycin), the “Sensitivity of BaxΔ2-positive clone #10 compared with BaxΔ2-negative clone #28” value was “more sensitive; also recorded: selectively sensitive”. Further, in data set [4], the “Sensitivity of BaxΔ2 positive clone #10 cells to treatment (cell death assay)” value is given as “more sensitive”. Moreover, the “Caspase-8 activation (cleaved caspase-8 fragments 43 kDa and 18 kDa)” value in the data set with caspase-8 is “activated”. The “Bid degradation (cleaved Bid)” value in the data set on Bid is listed as “partially degraded”. Also, the “Sensitivity to treatment compared with cancer cells with wild type Bax” value in data set [7] and in [8] was “more sensitive” throughout.
With “Z-DEVD-FMK (N-Z, C-terminal fluoromethylketone) [caspase-3 inhibitor]”, the “Inhibition of chemodrug-induced apoptosis” value in the data set on HCT116 clone #10 [6] is given as “effectively inhibited”.
